Assay: xn = mol fraction of the nth substance listed
Details: Liquid, Vibrating tube method

CC12CCC(CC1)C(C)(C)O2 [1,3,3-trimethyl-2-oxabicyclo[2.2.2]octane] + CCCO
mass density [kg/m3]
Details	20000 kPa	25000 kPa	30000 kPa	35000 kPa	40000 kPa
283.15 K, x1 = 0.0499	839.5	842.9	845.8	848.9	851.6
283.15 K, x1 = 0.1061	853.7	856.9	859.8	862.8	865.5
283.15 K, x1 = 0.2029	873.3	876.4	879.3	882.3	885
283.15 K, x1 = 0.3028	889.7	892.8	895.6	898.6	901.4
283.15 K, x1 = 0.3955	901.8	905	907.9	910.7	913.5
283.15 K, x1 = 0.4938	912.4	915.6	918.5	921.3	924
283.15 K, x1 = 0.5904	921.2	924.4	927.3	930.1	932.9
283.15 K, x1 = 0.7	929.6	932.8	935.7	938.5	941.2
283.15 K, x1 = 0.7915	935.7	938.9	941.7	944.6	947.3
283.15 K, x1 = 0.8954	941.2	944.3	947.2	950.1	952.8
283.15 K, x1 = 0.9332	942.9	946.1	949	951.8	954.5
283.15 K, x1 = 1	945.9	949.1	952	954.9	957.6
298.15 K, x1 = 0.0499	828.6	831.8	835.1	838.1	841.2
298.15 K, x1 = 0.1061	842.6	845.8	849	852	855
298.15 K, x1 = 0.2029	862	865.2	868.4	871.4	874.4
298.15 K, x1 = 0.3028	878.3	881.6	884.7	887.7	890.6
298.15 K, x1 = 0.3955	890.5	893.7	896.7	899.8	902.7
298.15 K, x1 = 0.4938	901	904.3	907.3	910.3	913.2
298.15 K, x1 = 0.5904	909.7	912.9	915.9	918.9	921.9
298.15 K, x1 = 0.7	917.9	921.1	924.2	927.1	930.1
298.15 K, x1 = 0.7915	923.9	927.1	930.2	933.2	936.1
298.15 K, x1 = 0.8954	929.4	932.6	935.7	938.8	941.6
298.15 K, x1 = 0.9332	931.1	934.3	937.3	940.3	943.3
298.15 K, x1 = 1	934.1	937.4	940.5	943.4	946.4
313.15 K, x1 = 0.0499	817.1	820.8	824.3	827.5	830.7
313.15 K, x1 = 0.1061	831	834.7	838.1	841.3	844.5
313.15 K, x1 = 0.2029	850.4	854	857.4	860.7	863.9
313.15 K, x1 = 0.3028	866.6	870.2	873.5	876.7	879.8
313.15 K, x1 = 0.3955	878.6	882.2	885.5	888.7	891.7
313.15 K, x1 = 0.4938	889.1	892.6	895.9	899	902.1
313.15 K, x1 = 0.5904	897.7	901.2	904.5	907.6	910.8
313.15 K, x1 = 0.7	905.8	909.3	912.6	915.8	918.9
313.15 K, x1 = 0.7915	911.8	915.3	918.6	921.8	924.9
313.15 K, x1 = 0.8954	917.3	920.8	924	927.3	930.5
313.15 K, x1 = 0.9332	919.1	922.5	925.9	929.1	932.2
313.15 K, x1 = 1	922.3	925.8	929.1	932.4	935.5
328.15 K, x1 = 0.0499	805.9	809.7	813.3	816.8	820.2
328.15 K, x1 = 0.1061	819.7	823.5	827.1	830.6	833.9
328.15 K, x1 = 0.2029	838.9	842.6	846.3	849.6	853.1
328.15 K, x1 = 0.3028	854.9	858.6	862.1	865.6	868.9
328.15 K, x1 = 0.3955	866.9	870.5	874	877.4	880.9
328.15 K, x1 = 0.4938	877.2	880.9	884.4	887.9	891.2
328.15 K, x1 = 0.5904	885.9	889.6	893.1	896.5	899.9
328.15 K, x1 = 0.7	894	897.7	901.2	904.6	908
328.15 K, x1 = 0.7915	899.9	903.7	907.2	910.5	913.9
328.15 K, x1 = 0.8954	905.5	909.3	912.7	916.2	919.5
328.15 K, x1 = 0.9332	907.3	911	914.5	917.9	921.3
328.15 K, x1 = 1	910.6	914.3	917.9	921.3	924.7
